Experimental data as given in US20230330060A1, “COMPOUNDS FOR TREATMENT OF HEART FAILURE” (Sulfateq B.V., priority 2020, published 2023).

Experiments:
[1] = test system: doxorubicin-induced heart failure; assay: Cardiac function assessment by PV-loop analysis in rats with doxorubicin-induced heart failure; assay type: in vivo, rat; conditions: for ESP (End-systolic pressure): doxorubicin 2 mg/kg weekly i.p. x9, mean±S.D.; for ESP (End-systolic pressure) / Contractility efficiency / EDP (end-diastolic pressure) / EDV (end-diastolic volume) / ESV (end-systolic volume) / Ea (Arterial elastance) / Ees (ESPVR) end-systolic elastance / Emax (EDPVR) maximal elastance / PRSW (preload recruitable stroke work) / SV (stroke volume) / Tau (time constant of LV pressure decay) / dP/dTmax / dP/dTmin: 12 weeks; for Contractility efficiency / EDP (end-diastolic pressure) / EDV (end-diastolic volume) / ESV (end-systolic volume) / Ea (Arterial elastance) / Ees (ESPVR) end-systolic elastance / Emax (EDPVR) maximal elastance / PRSW (preload recruitable stroke work) / SV (stroke volume) / Tau (time constant of LV pressure decay) / dP/dTmax / dP/dTmin / Cardiac function (heart rate, ejection fraction, stroke work, cardiac output), FIG. 1: doxorubicin rats; for Contractility efficiency / EDP (end-diastolic pressure) / EDV (end-diastolic volume) / ESV (end-systolic volume) / Ea (Arterial elastance) / Ees (ESPVR) end-systolic elastance / Emax (EDPVR) maximal elastance / PRSW (preload recruitable stroke work) / SV (stroke volume) / Tau (time constant of LV pressure decay) / dP/dTmax / dP/dTmin: SUL-150 diet; for Cardiac function (heart rate, ejection fraction, stroke work, cardiac output), FIG. 1: p<0.05 vs doxorubicin group
Method: The effectiveness of the compounds according to the invention for treatment or prophylaxis of HFrEF was tested in vivo in rats. Doxorubicin, an anthracycline antibiotic used in cancer chemotherapy, was employed to induce heart failure with reduced ejection fraction in preclinical rat models (Christiansen et al. (2006) Eur. J. Cardiothorac. Surg. 30:611-616; Ertunc et al. (2009) Pharmacology 84:240-248; Hayward et al. (2007) J. Am. Ass. Lab. Animal Sci. 46:20-32). […] The SUL-150 solution was sprayed homogeneously over standard food pellets (1.25 kg). […] Food pellets were freshly prepared weekly. With the approximation of 200 mg/kg SUL-150 in the food pellets and a daily dietary intake of 25 gram for a 350 gram rat, daily dosing of SUL-150 approximates 5 mg per day. Male outbred Wistar rats of 250-300 grams (10-12 weeks old) were kept on a 12h light/dark cycle and received a standard diet with distilled water ad libitum. Thirty rats were administered with doxorubicin (2 mg/kg) weekly via intraperitoneal injection for 9 consecutive weeks and were left either untreated (standard chow diet, 10 rats), or received a diet supplemented with SUL-150 as prophylaxis (prior to the 1st doxorubicin administration, 10 rats) or therapy (starting after the 6th doxorubicin administration, 10 rats). Sham control rats (8 rats) were administered with saline weekly via intraperitoneal injection for 9 consecutive weeks and received a standard diet. All rats were subjected to cardiac function assessment 12 weeks after the first doxorubicin administration. Cardiac function tests (PV-Loop assessment) were performed under anaesthesia (isoflurane in O2 (FiO2 100%)) followed by orotracheal intubation. The rats were placed in a mechanical rodent ventilator (Harvard Apparatus, Holliston, Massachusetts) with tidal volume of 10 mL/kg and 70 breaths per minute. A small window was opened below the sternum and with a small incision a 2F microtip pressure-conductance catheter (SPR-838; Millar Instruments, Houston, Tx) was inserted directly on the left ventricle (LV) through the apex. After stabilization, signals were recorded with a pressure-volume conductance System ([…]-Ultra, Millar Instruments, Houston, Tx) connected to a data acquisition system (PowerLab, AD Instruments, Colorado Springs, Co). […] Volume calibration was performed with fresh heparinized warm blood from each animal. Also, […] of 7.5% hypertonic saline was injected at the end of each experiment for the parallel conductance volume calibration. Data is analysed in GraphPad Prism 8.0 (GraphPad Software Inc, Ca). All results are expressed as mean±S.D. (standard deviation) or median and interquartile interval. The difference between groups was assessed by ANOVA followed by pairwise comparisons to the sham and vehicle treatment groups with p-values adjusted for multiple comparisons using FDR correction.

[2] = test system: H9C2 cardiomyocytes; assay: Quantification of phenylephrine-induced EGFP synthesis as surrogate for cell size (hypertrophy); assay type: cell-based, rat
Method: Rat H9C2 cardiomyoblasts (ATCC CRL-1446) were maintained in DMEM medium containing 10% fetal bovine serum and 1% Penicillin-Streptomycin solution (Sigma-Aldrich) and passaged when the cultures reach a confluency of 70%. Prior to experiments, H9C2 myoblasts were differentiated to cardiomyocytes by serum reduction (to 1%) and stimulation with 20 nM retinoic acid for 5 days. Differentiated H9C2 cardiomyocytes were seeded at 0.6·10^5 cells/cm^2 for all experiments.
H9C2 cardiomyocytes (0.6·10^5 cells/cm2) were infected with CMV-copGPF (MOI 10) in culture medium without serum for 24 h. H9C2 cardiomyocytes were pre-incubated with 30 μM SUL compounds under standard culture conditions for 30 min and then stimulated with phenylephrine (dose range 2·10^−5 to 1·10^−11 M) for an additional period of 24 h. Thereafter H9C2 cardiomyocytes were lysed in 100 μl soft lysis buffer (25 mM Tris, 2 mM Dithiothreitol, 2 mM EDTA, 1% Triton X-100, pH 7.4). per well and fluorescence intensity of the obtained supernatant was recorded in a CLARIOStar Plus plate reader (BMG Labtech) equipped with a FITC filter set (excitation 488 nm with 10 nm bandwidth; emission 515 with a 20 nm bandwidth).
All experiments were performed in triplicate per condition and averaged. Data obtained from two individual experiments were used for evaluation in GraphPad Prism 8.0 (GraphPad Software Inc, Ca). Average H9C2 cardiomyocyte cell size was associated to average EGFP levels using linear regression. Phenylephrine-induced EGFP synthesis was normalized, using baseline levels as 0% and maximum EGFP recordings as 100%. All datasets were normalized to vehicle controls. 4 parameter non-linear regression was used to determine the efficacy of potency of phenylephrine to induce GFP synthesis. The efficacy of SUL compounds to inhibit phenylephrine-induced EGFP synthesis was calculated as 100%-Emax, wherein Emax is the maximal effect evoked by phenylephrine.

[3] = therapeutic (after 6th doxorubicin)

SMILES: Cc1c(C)c2c(c(C)c1O)CC[C@](C)(C(=O)N1CCNCC1)O2 [SUL-150, (R)-(6-hydroxy-2,5,7,8-tetramethylchroman-2-yl)(piperazin-1-yl)methanone]
- ESP (End-systolic pressure) ([1]; SUL-150 in diet (approx. 5 mg per day) as prophylaxis, prior to 1st doxorubicin): 104.4 ± 12.3 mmHg
- ESP (End-systolic pressure) ([1]; SUL-150 in diet (approx. 5 mg per day) as therapy, after 6th doxorubicin): 114.3 ± 18.4 mmHg
- Contractility efficiency ([1]; prophylaxis): 53.0 ± 16.4 %
- EDP (end-diastolic pressure) ([1]; prophylaxis): 8.1 ± 3.0 mmHg
- EDV (end-diastolic volume) ([1]; prophylaxis): 325.0 ± 144^ μl
- ESV (end-systolic volume) ([1]; prophylaxis): 175.3 ± 107^ μl
- Ea (Arterial elastance) ([1]; prophylaxis): 0.7 ± 0.2 mmHg · μl−1
- Ees (ESPVR) end-systolic elastance ([1]; prophylaxis): 0.7 ± 0.6 mmHg · μl−1
- Emax (EDPVR) maximal elastance ([1]; prophylaxis): 0.04 ± 0.03 mmHg · μl−1
- PRSW (preload recruitable stroke work) ([1]; prophylaxis): 9.9 ± 4.0 mmHg · ml−1
- SV (stroke volume) ([1]; prophylaxis): 149.7 ± 55.† μl
- Tau (time constant of LV pressure decay) ([1]; prophylaxis): 12.5 ± 3.1
- dP/dTmax ([1]; prophylaxis): 6144 ± 1782 mmHg · s−1
- dP/dTmin ([1]; prophylaxis): −5006 ± 1140 mmHg · s−1
- Contractility efficiency [1, 3]: 47.1 ± 18.1 %
- EDP (end-diastolic pressure) [1, 3]: 7.4 ± 3.7 mmHg
- EDV (end-diastolic volume) [1, 3]: 363.1 ± 115^ μl
- ESV (end-systolic volume) [1, 3]: 205.0 ± 96.4 µL
- Ea (Arterial elastance) [1, 3]: 0.7 ± 0.2 mmHg · μl−1
- Ees (ESPVR) end-systolic elastance [1, 3]: 0.5 ± 0.4 mmHg · μl−1
- Emax (EDPVR) maximal elastance [1, 3]: 0.03 ± 0.02 mmHg · μl−1
- PRSW (preload recruitable stroke work) [1, 3]: 11.0 ± 3.9 mmHg · ml−1
- SV (stroke volume) [1, 3]: 158.1 ± 55.† μl
- Tau (time constant of LV pressure decay) [1, 3]: 13.6 ± 5.2
- dP/dTmax [1, 3]: 6487 ± 1665 mmHg · s−1
- dP/dTmin [1, 3]: −5092 ± 1447 mmHg · s−1
- Cardiac function (heart rate, ejection fraction, stroke work, cardiac output), FIG. 1 ([1]; SUL-150 via food pellets after 6 cumulative doxorubicin administrations (therapeutic group)): substantially improves the cardiac function
- Cardiac function (heart rate, ejection fraction, stroke work, cardiac output), FIG. 1 ([1]; SUL-150 via food pellets prior to doxorubicin (prophylaxis group)): substantially preserves cardiac function and largely maintains ejection fraction and cardiac output
- SUL EGFP Inhibition (%) ([2]; 30 μM SUL compound, calculated as 100%-Emax): 66.49%
- Expression of EGFP induced by phenylephrine (FIG. 3) ([2]; preincubation with 30 μM compound): reduced the expression of EGFP
